pEC50: −log10 of the molar value.
These compounds were tested against Ras-related C3 botulinum toxin substrate 1 (Mus musculus, UniProt P63001) (assay: blockers of fluorescent GTP loading onto wildtype Rac1 – biochemical, pyrazoline analogs, multiplex, flow cytometry, Ki, SAR follow-up (AID 2055)). Details: inactive by the depositor's call.

Compound | pEC50
COc1ccc(C2CC(c3ccccc3)=NN2c2cccc(S(N)(=O)=O)c2)cc1 (stereo not drawn) [3-[3-(4-methoxyphenyl)-5-phenyl-3,4-dihydropyrazol-2-yl]benzenesulfonamide] | 4.52
CN(C)c1ccc(C2CC(c3ccccc3)=NN2c2ccccc2)cc1 (stereo not drawn) [4-(2,5-diphenyl-3,4-dihydropyrazol-3-yl)-N,N-dimethylaniline] | 4.52
NS(=O)(=O)c1ccc(N2N=C(c3ccccc3)CC2c2ccccc2)cc1 (stereo not drawn) [4-(3,5-diphenyl-3,4-dihydropyrazol-2-yl)benzenesulfonamide] | 4.52
COc1ccc(C2=NN(c3ccc(S(N)(=O)=O)cc3)C(c3ccc(OC)cc3)C2)cc1 (stereo not drawn) [4-[3,5-bis(4-methoxyphenyl)-3,4-dihydropyrazol-2-yl]benzenesulfonamide] | 4.52
NS(=O)(=O)c1ccc(N2N=C(c3ccccc3)CC2c2ccccc2Br)cc1 (stereo not drawn) [4-[3-(2-bromophenyl)-5-phenyl-3,4-dihydropyrazol-2-yl]benzenesulfonamide] | 4.52
COc1ccccc1C1CC(c2ccccc2)=NN1c1ccc(S(N)(=O)=O)cc1 (stereo not drawn) [4-[3-(2-methoxyphenyl)-5-phenyl-3,4-dihydropyrazol-2-yl]benzenesulfonamide] | 4.52
COc1cccc(C2CC(c3ccccc3)=NN2c2ccc(S(N)(=O)=O)cc2)c1 (stereo not drawn) [4-[3-(3-methoxyphenyl)-5-phenyl-3,4-dihydropyrazol-2-yl]benzenesulfonamide] | 4.52
NS(=O)(=O)c1ccc(N2N=C(c3ccccc3)CC2c2ccc(Cl)cc2)cc1 (stereo not drawn) [4-[3-(4-chlorophenyl)-5-phenyl-3,4-dihydropyrazol-2-yl]benzenesulfonamide] | 4.52
COc1ccc(C2CC(c3ccc(C(F)(F)F)cc3)=NN2c2ccc(S(N)(=O)=O)cc2)cc1 (stereo not drawn) [4-[3-(4-methoxyphenyl)-5-[4-(trifluoromethyl)phenyl]-3,4-dihydropyrazol-2-yl]benzenesulfonamide] | 4.52
COc1ccc(C2CC(C)=NN2c2ccc(S(N)(=O)=O)cc2)cc1 (stereo not drawn) [4-[3-(4-methoxyphenyl)-5-methyl-3,4-dihydropyrazol-2-yl]benzenesulfonamide] | 4.52
COc1ccc(C2CC(c3ccsc3)=NN2c2ccc(S(N)(=O)=O)cc2)cc1 (stereo not drawn) [4-[3-(4-methoxyphenyl)-5-thiophen-3-yl-3,4-dihydropyrazol-2-yl]benzenesulfonamide] | 4.52
COc1ccc(C2CC(c3ccccc3Cl)=NN2c2ccc(S(N)(=O)=O)cc2)cc1 (stereo not drawn) [4-[5-(2-chlorophenyl)-3-(4-methoxyphenyl)-3,4-dihydropyrazol-2-yl]benzenesulfonamide] | 4.52
COc1ccc(C2CC(c3cccc(F)c3)=NN2c2ccc(S(N)(=O)=O)cc2)cc1 (stereo not drawn) [4-[5-(3-fluorophenyl)-3-(4-methoxyphenyl)-3,4-dihydropyrazol-2-yl]benzenesulfonamide] | 4.52
COc1ccc(C2CC(c3cccc(OC)c3)=NN2c2ccc(S(N)(=O)=O)cc2)cc1 (stereo not drawn) [4-[5-(3-methoxyphenyl)-3-(4-methoxyphenyl)-3,4-dihydropyrazol-2-yl]benzenesulfonamide] | 4.52
NS(=O)(=O)c1ccc(N2N=C(c3ccc(Br)cc3)CC2c2ccc(F)cc2)cc1 (stereo not drawn) [4-[5-(4-bromophenyl)-3-(4-fluorophenyl)-3,4-dihydropyrazol-2-yl]benzenesulfonamide] | 7.85
COc1ccc(C2CC(c3ccc(F)cc3)=NN2c2ccc(S(N)(=O)=O)cc2)cc1 (stereo not drawn) [4-[5-(4-fluorophenyl)-3-(4-methoxyphenyl)-3,4-dihydropyrazol-2-yl]benzenesulfonamide] | 4.52
COc1ccc(-c2cc(-c3ccccc3)nn2-c2ccc(S(N)(=O)=O)cc2)cc1 [4-[5-(4-methoxyphenyl)-3-phenylpyrazol-1-yl]benzenesulfonamide] | 4.52
COc1ccc(C2CC(C3CCCCC3)=NN2c2ccc(S(N)(=O)=O)cc2)cc1 (stereo not drawn) [4-[5-cyclohexyl-3-(4-methoxyphenyl)-3,4-dihydropyrazol-2-yl]benzenesulfonamide] | 4.52
